Assay results: article PMC10033419, “Blocking NS3–NS4B interaction inhibits dengue virus in non-human primates” (Nature, 2023)
Values joined by “and” are separate entries in the source; they are usually repeats but may differ in a detail not shown here. Equal entries are not always repeated. Where two headings read alike, the source gives them in different places.

Legend:
DENV-2 RL strain = assay: Antiviral assay, viral RNA RT-qPCR, Vero cells; format: cell-based
[1] = ATPLite cell viability assay; format: cell-based, African green monkey; conditions: African green monkey, Vero cells
Description: (§1) In parallel, the toxicity was measured using an ATPLite cell viability luminescence assay (PerkinElmer). The assays were performed in three different cell types (Vero, Huh-7 and THP-1/DC-SIGN) as described in ref. [3] to exclude cell-specific activity of the compound.

Vero cells = assay: ATPLite cell viability assay; format: cell-based, African green monkey; conditions: individual experiments, listed as 64281802-AAA
Description: as §1

[2] = ATPLite cell viability assay; format: cell-based, human; conditions: human, THP-1/DC-SIGN cells
Description: as §1

THP-1/DC-SIGN cells = assay: ATPLite cell viability assay; format: cell-based, human
Description: as §1

DENV-2 Asian I Thailand = format: cell-based; conditions: T108I in NS4B
CHIKV S27 = assay: CPE inhibition assay ATPLite, Huh-7; format: cell-based; conditions: Chikungunya virus
HCV Genotype 1b replicon = assay: microbe, parasite or virus in culture; format: cell-based; conditions: Hepatitis C virus
TOX-MT4LTRLUC = format: cell-based; conditions: human, MT4LTRLUC cells
From the text: Supplement 41586_2023_5790_MOESM14_ESM.xlsx, sheet "Ext. Data Table 1" | column: Mean

NS3–NS4B interaction = format: cell-based; conditions: for EC50: single replicates, read-out: EC50 (NS3/4B interaction), IP
in vivo [3] = assay: in vivo; design: species or system rhesus macaques; conditions: both sexes, Indian-strain, rhesus monkey, po, 6 mg/kg
From the text: WRAIR is fully accredited by AAALAC International.

Plasma protein binding = format: in vitro ADME; conditions: rhesus monkey, rhesus macaques
[4] = rhesus monkey, in vivo
in vivo [5] = conditions: both, Indian-origin, rhesus monkey, po
DENV-1/45AZ5 = assay: NHP DENV-1 study, IgM/IgG ELISA; conditions: for IgG ELISA Titer / IgM ELISA Titer: Negative = 100

SMILES: COc1cc(N[C@H](C(=O)c2c[nH]c3ccc(OC(F)(F)F)cc23)c2ccc(Cl)cc2OC)cc(S(C)(=O)=O)c1 [JNJ-1802]
- EC90 (DENV-2 RL strain; Dengue virus, DENV2, Vero, Vero): 0.275 ± 0.081 nM
- EC50 (DENV-2 RL strain; Dengue virus, DENV2, Vero, Vero cells, DENV-2RL, EXP1-EXP3, read-out: EC50, single experiments): 0.041 nM
- EC90 (DENV-2 RL strain; Dengue virus, DENV2, Vero, Vero cells, DENV-2RL, EXP1-EXP3, read-out: EC90, single experiments): 0.19 nM
- EC50 (DENV-2 RL strain; Dengue virus, DENV2, Vero, Vero cells, DENV-2RL, median, read-out: EC50 MEDIAN): 0.068 nM
- EC90 (DENV-2 RL strain; Dengue virus, DENV2, Vero, Vero cells, DENV-2RL, median, read-out: EC90 MEDIAN): 0.29 nM
- EC50 (DENV-2 RL strain; Dengue virus, DENV2, Vero, Vero, read-out: EC50): 0.062 ± 0.019 nM
- EC50 (DENV-2 RL strain; Vero cells, DENV-2RL, EXP1-EXP3, read-out: EC50, single experiments): 0.077 nM
- EC90 (DENV-2 RL strain; Vero cells, DENV-2RL, EXP1-EXP3, read-out: EC90, single experiments): 0.35 nM
- CC50 at 4 d ([1]; TOX d4 preseeding, individual experiments): 3040 nM
- CC50 ([1]; Vero): 2610 ± 470 nM
- CC50 ([1]; Vero with 50% HS): > 1500 nM
- CC50 (Vero cells; Vero cells in presence of 50% HS): > 2500 nM
- CC50 (Vero cells; Vero cells, TOX d4 preseeding): 3080 nM and 2400 nM and 2780 nM and 3520 nM and 2200 nM and 2320 nM and 2270 nM and 2310 nM and 2180 nM
- CC50 [2]: > 500 nM
- CC50 (THP-1/DC-SIGN cells; individual data, read-out: CC50, individual data): > 500 nM
- CC50 (THP-1/DC-SIGN cells; mean, read-out: CC50 Mean): > 500 nM
- EC50 (DENV-2 Asian I Thailand): 1.4 ± 0.34 nM
- EC90 (DENV-2 Asian I Thailand): 2.78 ± 0.037 nM
- EC50 (CHIKV S27; Huh-7): > 25000 nM
- EC90 (CHIKV S27; Huh-7, read-out: EC90, Mean): > 25000 nM
- EC50 (HCV Genotype 1b replicon): 5500 nM
- EC50 (HCV Genotype 1b replicon; read-out: EC50, Mean): 5450 nM
- EC90 (HCV Genotype 1b replicon; read-out: EC90, Mean): 20300 nM
- CC50 (TOX-MT4LTRLUC): 8140 nM
- CC90 (TOX-MT4LTRLUC): 21200 nM
- Tmax (in vivo [3]): 8 h
- fraction unbound (Plasma protein binding): < 0.001
- adverse effects [4]: No adverse effects were observed
- weight loss [4]: not attributable to treatment with JNJ-1802
- bioavailability (in vivo [5]): 18 to 27%
- AUC(0-t) (in vivo [5]; 0.18 mg/kg): 491 ± 147 ng·h/mL
- AUC(0-t) (in vivo [5]; 0.18 mg/kg, AUC(0-24h)): 227 ± 146 ng·h/mL
- Cmax (in vivo [5]; 0.18 mg/kg, Cmax): 15.1 ± 8.5 ng/mL
- Tmax (in vivo [5]; 0.18 mg/kg, tmax): 8 to 24 h
- IgM and IgG responses (DENV-1/45AZ5; 6 mg per kg per day q.d.): undetectable
- IgG ELISA Titer (DENV-1/45AZ5; animal R7, Day 0): 100
- IgM ELISA Titer (DENV-1/45AZ5; animal R7, Day 0): 100
- IgG ELISA Titer (DENV-1/45AZ5; animal R7, Day 5): 100
- IgM ELISA Titer (DENV-1/45AZ5; animal R7, Day 5): 100
- IgG ELISA Titer (DENV-1/45AZ5; animal R7, Day 7): 100
- IgM ELISA Titer (DENV-1/45AZ5; animal R7, Day 7): 100
- IgG ELISA Titer (DENV-1/45AZ5; animal R7, Day 9): 100
- IgM ELISA Titer (DENV-1/45AZ5; animal R7, Day 9): 100
- IgG ELISA Titer (DENV-1/45AZ5; animal R7, Day 11): 100
- IgM ELISA Titer (DENV-1/45AZ5; animal R7, Day 11): 100
- IgG ELISA Titer (DENV-1/45AZ5; animal R7, Day 14): 100
- IgM ELISA Titer (DENV-1/45AZ5; animal R7, Day 14): 100
- IgG ELISA Titer (DENV-1/45AZ5; animal R7, Day 29): 100
- IgM ELISA Titer (DENV-1/45AZ5; animal R7, Day 29): 100
- IgG ELISA Titer (DENV-1/45AZ5; animal R8, Day 0): 100
- IgM ELISA Titer (DENV-1/45AZ5; animal R8, Day 0): 100
- IgG ELISA Titer (DENV-1/45AZ5; animal R8, Day 5): 100
- IgM ELISA Titer (DENV-1/45AZ5; animal R8, Day 5): 100
- IgG ELISA Titer (DENV-1/45AZ5; animal R8, Day 7): 100
- IgM ELISA Titer (DENV-1/45AZ5; animal R8, Day 7): 100
- IgG ELISA Titer (DENV-1/45AZ5; animal R8, Day 9): 100
- IgM ELISA Titer (DENV-1/45AZ5; animal R8, Day 9): 100
- IgG ELISA Titer (DENV-1/45AZ5; animal R8, Day 11): 100
- IgM ELISA Titer (DENV-1/45AZ5; animal R8, Day 11): 100
- IgG ELISA Titer (DENV-1/45AZ5; animal R8, Day 14): 100
- IgM ELISA Titer (DENV-1/45AZ5; animal R8, Day 14): 100
- IgG ELISA Titer (DENV-1/45AZ5; animal R8, Day 29): 100
- IgM ELISA Titer (DENV-1/45AZ5; animal R8, Day 29): 100
- IgG ELISA Titer (DENV-1/45AZ5; animal R9, Day 0): 100
- IgM ELISA Titer (DENV-1/45AZ5; animal R9, Day 0): 100
- IgG ELISA Titer (DENV-1/45AZ5; animal R9, Day 5): 100
- IgM ELISA Titer (DENV-1/45AZ5; animal R9, Day 5): 100
- IgG ELISA Titer (DENV-1/45AZ5; animal R9, Day 7): 100
- IgM ELISA Titer (DENV-1/45AZ5; animal R9, Day 7): 100
- IgG ELISA Titer (DENV-1/45AZ5; animal R9, Day 9): 100
- IgM ELISA Titer (DENV-1/45AZ5; animal R9, Day 9): 100
- IgG ELISA Titer (DENV-1/45AZ5; animal R9, Day 11): 100
- IgM ELISA Titer (DENV-1/45AZ5; animal R9, Day 11): 100
- IgG ELISA Titer (DENV-1/45AZ5; animal R9, Day 14): 100
- IgM ELISA Titer (DENV-1/45AZ5; animal R9, Day 14): 100
- IgG ELISA Titer (DENV-1/45AZ5; animal R9, Day 29): 100
- IgM ELISA Titer (DENV-1/45AZ5; animal R9, Day 29): 100
- IgG ELISA Titer (DENV-1/45AZ5; animal R10, Day 0): 100
- IgM ELISA Titer (DENV-1/45AZ5; animal R10, Day 0): 100
- IgG ELISA Titer (DENV-1/45AZ5; animal R10, Day 5): 100
- IgM ELISA Titer (DENV-1/45AZ5; animal R10, Day 5): 100
- IgG ELISA Titer (DENV-1/45AZ5; animal R10, Day 7): 100
- IgM ELISA Titer (DENV-1/45AZ5; animal R10, Day 7): 100
- IgG ELISA Titer (DENV-1/45AZ5; animal R10, Day 9): 100
- IgM ELISA Titer (DENV-1/45AZ5; animal R10, Day 9): 100
- IgG ELISA Titer (DENV-1/45AZ5; animal R10, Day 11): 100
- IgM ELISA Titer (DENV-1/45AZ5; animal R10, Day 11): 100
- IgG ELISA Titer (DENV-1/45AZ5; animal R10, Day 14): 100
- IgM ELISA Titer (DENV-1/45AZ5; animal R10, Day 14): 100
- IgG ELISA Titer (DENV-1/45AZ5; animal R10, Day 29): 100
- IgM ELISA Titer (DENV-1/45AZ5; animal R10, Day 29): 100
- IgG ELISA Titer (DENV-1/45AZ5; animal R11, Day 0): 100
- IgM ELISA Titer (DENV-1/45AZ5; animal R11, Day 0): 100
- IgG ELISA Titer (DENV-1/45AZ5; animal R11, Day 5): 100
- IgM ELISA Titer (DENV-1/45AZ5; animal R11, Day 5): 100
- IgG ELISA Titer (DENV-1/45AZ5; animal R11, Day 7): 100
- IgM ELISA Titer (DENV-1/45AZ5; animal R11, Day 7): 100
- IgG ELISA Titer (DENV-1/45AZ5; animal R11, Day 9): 100
- IgM ELISA Titer (DENV-1/45AZ5; animal R11, Day 9): 100
- IgG ELISA Titer (DENV-1/45AZ5; animal R11, Day 11): 100
- IgM ELISA Titer (DENV-1/45AZ5; animal R11, Day 11): 100
- IgG ELISA Titer (DENV-1/45AZ5; animal R11, Day 14): 100
- IgM ELISA Titer (DENV-1/45AZ5; animal R11, Day 14): 100
- IgG ELISA Titer (DENV-1/45AZ5; animal R11, Day 29): 100
- IgM ELISA Titer (DENV-1/45AZ5; animal R11, Day 29): 100
- IgG ELISA Titer (DENV-1/45AZ5; animal R12, Day 0): 100
- IgM ELISA Titer (DENV-1/45AZ5; animal R12, Day 0): 100
- IgG ELISA Titer (DENV-1/45AZ5; animal R12, Day 5): 100
- IgM ELISA Titer (DENV-1/45AZ5; animal R12, Day 5): 100
- IgG ELISA Titer (DENV-1/45AZ5; animal R12, Day 7): 100
- IgM ELISA Titer (DENV-1/45AZ5; animal R12, Day 7): 100
- IgG ELISA Titer (DENV-1/45AZ5; animal R12, Day 9): 100
- IgM ELISA Titer (DENV-1/45AZ5; animal R12, Day 9): 100
- IgG ELISA Titer (DENV-1/45AZ5; animal R12, Day 11): 100
- IgM ELISA Titer (DENV-1/45AZ5; animal R12, Day 11): 100
- IgG ELISA Titer (DENV-1/45AZ5; animal R12, Day 14): 100
- IgM ELISA Titer (DENV-1/45AZ5; animal R12, Day 14): 100
- IgG ELISA Titer (DENV-1/45AZ5; animal R12, Day 29): 100
- IgM ELISA Titer (DENV-1/45AZ5; animal R12, Day 29): 100
